Measurements: the supplement of paper PMC11451515

Experiments:
Conditions in all cases: 48 h
NOMO1 [1] = assay: cell viability relative to DMSO control; higher = less cytotoxic
Procedure, shortened: (§1)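 Library compounds in DMSO were pin-dosed into 1536-well plates (5 μl) holding NOMO1 or SEM (500 cells/well) or P12-Ichikawa (1000 cells/well) leukemia cells, across an 11-point threefold series of 47 μM to 0.79 nM. Each cell line had been adapted for at least four passages in each medium. CellTiter-Glo One luminescence was read after 48 h at 37°C. Viability is the per-plate percentage relative to DMSO wells, with cell-free wells as background.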

P12-Ichikawa [2] = assay: as above
Procedure, shortened: as §1

SEM cells [3] = assay: as above
Procedure, shortened: as §1

NOMO1 [4] = assay: AUC of viability dose-response curve (% viability x log10 dose units); higher = less sensitive
Procedure, shortened: (§2)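 Medium-adapted leukemia cells in 1536-well plates, at 500 or 1000 cells/well, were incubated for 48 h at 37°C with library compounds in DMSO at 11 threefold doses from 47 μM to 0.79 nM. CellTiter-Glo One luminescence normalised per plate to DMSO and cell-free wells was fitted with a four-parameter log-logistic model over log10 doses. Area under the curve was integrated from this fit by trapezoidal rule, with curves beyond full viability scaled and failed quality-control curves removed.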

P12-Ichikawa [5] = assay: as above
Procedure, shortened: as §2

SEM cells [6] = assay: as above
Procedure, shortened: as §2

COc1ccccc1OCC(O)CN1CCN(CC(=O)Nc2c(C)cccc2C)CC1 (stereo unspecified)
cell viability [%]
Conditions | NOMO1 [1] | P12-Ichikawa [2] | SEM cells [3]
HPLM + 10% dialyzed FBS, 0.000781 µM | 109 | 122 | 81.9
HPLM + 10% dialyzed FBS, 0.00234 µM | 117 | 119 | 101
HPLM + 10% dialyzed FBS, 0.00702 µM | 142 | 127 | 98
HPLM + 10% dialyzed FBS, 0.0211 µM | 142 | 127 | 121
HPLM + 10% dialyzed FBS, 0.0632 µM | 129 | 130 | 126
HPLM + 10% dialyzed FBS, 0.19 µM | 157 | 132 | 123
HPLM + 10% dialyzed FBS, 0.569 µM | 168 | 135 | 111
HPLM + 10% dialyzed FBS, 1.71 µM | 154 | 132 | 118
HPLM + 10% dialyzed FBS, 5.12 µM | 138 | 140 | 136
HPLM + 10% dialyzed FBS, 15.4 µM | 138 | 112 | 130
HPLM + 10% dialyzed FBS, 46.1 µM | 137 | 110 | 136
RPMI 5 mM glucose + 10% FBS, 0.000781 µM | 115 | – | 104
RPMI 5 mM glucose + 10% FBS, 0.00234 µM | 131 | – | 135
RPMI 5 mM glucose + 10% FBS, 0.00702 µM | 125 | – | 122
RPMI 5 mM glucose + 10% FBS, 0.0211 µM | 167 | – | 128
RPMI 5 mM glucose + 10% FBS, 0.0632 µM | 139 | – | 134
RPMI 5 mM glucose + 10% FBS, 0.19 µM | 155 | – | 148
RPMI 5 mM glucose + 10% FBS, 0.569 µM | 141 | – | 123
RPMI 5 mM glucose + 10% FBS, 1.71 µM | 136 | – | 142
RPMI 5 mM glucose + 10% FBS, 5.12 µM | 144 | – | 134
RPMI 5 mM glucose + 10% FBS, 15.4 µM | 139 | – | 129
RPMI 5 mM glucose + 10% FBS, 46.1 µM | 141 | – | 131
RPMI 5 mM glucose + 10% dialyzed FBS, 0.000781 µM | – | – | 115
RPMI 5 mM glucose + 10% dialyzed FBS, 0.00234 µM | – | – | 128
RPMI 5 mM glucose + 10% dialyzed FBS, 0.00702 µM | – | – | 114
RPMI 5 mM glucose + 10% dialyzed FBS, 0.0211 µM | – | – | 136
RPMI 5 mM glucose + 10% dialyzed FBS, 0.0632 µM | – | – | 125
RPMI 5 mM glucose + 10% dialyzed FBS, 0.19 µM | – | – | 135
RPMI 5 mM glucose + 10% dialyzed FBS, 0.569 µM | – | – | 137
RPMI 5 mM glucose + 10% dialyzed FBS, 1.71 µM | – | – | 121
RPMI 5 mM glucose + 10% dialyzed FBS, 5.12 µM | – | – | 132
RPMI 5 mM glucose + 10% dialyzed FBS, 15.4 µM | – | – | 130
RPMI 5 mM glucose + 10% dialyzed FBS, 46.1 µM | – | – | 126

AUC of viability dose-response curve
Conditions | NOMO1 [4] | P12-Ichikawa [5] | SEM cells [6]
HPLM + 10% dialyzed FBS | 460 | 467 | 433
RPMI 5 mM glucose + 10% FBS | 453 | 469 | 471
RPMI 5 mM glucose + 10% dialyzed FBS | 465 | 468 | 469

COc1ccc2c(c1)CC[C@@H](CN(C)CC(=O)O)[C@H]2c1ccccc1
cell viability [%]
Conditions | NOMO1 [1] | P12-Ichikawa [2] | SEM cells [3]
RPMI 5 mM glucose + 10% FBS, 0.000781 µM | – | – | 120
RPMI 5 mM glucose + 10% FBS, 0.00234 µM | – | – | 122
RPMI 5 mM glucose + 10% FBS, 0.00702 µM | – | – | 126
RPMI 5 mM glucose + 10% FBS, 0.0211 µM | – | – | 109
RPMI 5 mM glucose + 10% FBS, 0.0632 µM | – | – | 124
RPMI 5 mM glucose + 10% FBS, 0.19 µM | – | – | 104
RPMI 5 mM glucose + 10% FBS, 0.569 µM | – | – | 110
RPMI 5 mM glucose + 10% FBS, 1.71 µM | – | – | 79.8
RPMI 5 mM glucose + 10% FBS, 5.12 µM | – | – | 31
RPMI 5 mM glucose + 10% FBS, 15.4 µM | – | – | 20.9
RPMI 5 mM glucose + 10% FBS, 46.1 µM | – | – | 16
RPMI 5 mM glucose + 10% dialyzed FBS, 0.000781 µM | 120 | 116 | 94.9
RPMI 5 mM glucose + 10% dialyzed FBS, 0.00234 µM | 125 | 122 | 100
RPMI 5 mM glucose + 10% dialyzed FBS, 0.00702 µM | 125 | 129 | 101
RPMI 5 mM glucose + 10% dialyzed FBS, 0.0211 µM | 101 | 119 | 110
RPMI 5 mM glucose + 10% dialyzed FBS, 0.0632 µM | 127 | 119 | 109
RPMI 5 mM glucose + 10% dialyzed FBS, 0.19 µM | 130 | 116 | 115
RPMI 5 mM glucose + 10% dialyzed FBS, 0.569 µM | 125 | 119 | 115
RPMI 5 mM glucose + 10% dialyzed FBS, 1.71 µM | 123 | 105 | 91.3
RPMI 5 mM glucose + 10% dialyzed FBS, 5.12 µM | 85.2 | 54.9 | 41.5
RPMI 5 mM glucose + 10% dialyzed FBS, 15.4 µM | 29.8 | 28.8 | 24.8
RPMI 5 mM glucose + 10% dialyzed FBS, 46.1 µM | 36.6 | 29.1 | 19.9

AUC of viability dose-response curve
Conditions | NOMO1 [4] | P12-Ichikawa [5] | SEM cells [6]
HPLM + 10% dialyzed FBS | 409 | 368 | 373
RPMI 5 mM glucose + 10% FBS | 407 | 369 | 362
RPMI 5 mM glucose + 10% dialyzed FBS | 411 | 390 | 385

Oc1ccc(-c2nc(-c3ccncc3)c(-c3ccc(F)cc3)[nH]2)cc1
cell viability [%]
Conditions | NOMO1 [1] | P12-Ichikawa [2] | SEM cells [3]
HPLM + 10% dialyzed FBS, 0.000781 µM | 99.7 | 115 | 83.4
HPLM + 10% dialyzed FBS, 0.00234 µM | 113 | 112 | 90.6
HPLM + 10% dialyzed FBS, 0.00702 µM | 122 | 118 | 102
HPLM + 10% dialyzed FBS, 0.0211 µM | 117 | 114 | 107
HPLM + 10% dialyzed FBS, 0.0632 µM | 125 | 124 | 104
HPLM + 10% dialyzed FBS, 0.19 µM | 135 | 120 | 69.1
HPLM + 10% dialyzed FBS, 0.569 µM | 147 | 130 | 42.4
HPLM + 10% dialyzed FBS, 1.71 µM | 121 | 115 | 45.4
HPLM + 10% dialyzed FBS, 5.12 µM | 19.1 | 64.3 | 7.43
HPLM + 10% dialyzed FBS, 15.4 µM | 2.63 | 13 | 2.46
HPLM + 10% dialyzed FBS, 46.1 µM | 1.72 | 5.07 | 0.872
RPMI 5 mM glucose + 10% FBS, 0.000781 µM | 100 | 99.2 | 105
RPMI 5 mM glucose + 10% FBS, 0.00234 µM | 106 | 99.7 | 86.9
RPMI 5 mM glucose + 10% FBS, 0.00702 µM | 106 | 117 | 89.5
RPMI 5 mM glucose + 10% FBS, 0.0211 µM | 112 | 111 | 93.6
RPMI 5 mM glucose + 10% FBS, 0.0632 µM | 116 | 111 | 76.1
RPMI 5 mM glucose + 10% FBS, 0.19 µM | 135 | 126 | 54.7
RPMI 5 mM glucose + 10% FBS, 0.569 µM | 150 | 117 | 34.9
RPMI 5 mM glucose + 10% FBS, 1.71 µM | 125 | 115 | 30.3
RPMI 5 mM glucose + 10% FBS, 5.12 µM | 118 | 98.8 | 1.32
RPMI 5 mM glucose + 10% FBS, 15.4 µM | 18.4 | 60.7 | 0.723
RPMI 5 mM glucose + 10% FBS, 46.1 µM | 1.54 | 2.19 | 0.55
RPMI 5 mM glucose + 10% dialyzed FBS, 0.000781 µM | 105 | 103 | 114
RPMI 5 mM glucose + 10% dialyzed FBS, 0.00234 µM | 124 | 112 | 99.9
RPMI 5 mM glucose + 10% dialyzed FBS, 0.00702 µM | 126 | 113 | 104
RPMI 5 mM glucose + 10% dialyzed FBS, 0.0211 µM | 110 | 119 | 98.8
RPMI 5 mM glucose + 10% dialyzed FBS, 0.0632 µM | 122 | 123 | 83
RPMI 5 mM glucose + 10% dialyzed FBS, 0.19 µM | 133 | 113 | 48.4
RPMI 5 mM glucose + 10% dialyzed FBS, 0.569 µM | 136 | 130 | 41.3
RPMI 5 mM glucose + 10% dialyzed FBS, 1.71 µM | 128 | 116 | 32.8
RPMI 5 mM glucose + 10% dialyzed FBS, 5.12 µM | 130 | 82.7 | 5.58
RPMI 5 mM glucose + 10% dialyzed FBS, 15.4 µM | 36.8 | 46 | 1.19
RPMI 5 mM glucose + 10% dialyzed FBS, 46.1 µM | 1.72 | 6.46 | 0.981

AUC of viability dose-response curve
Conditions | NOMO1 [4] | P12-Ichikawa [5] | SEM cells [6]
HPLM + 10% dialyzed FBS | 366 | 388 | 289
RPMI 5 mM glucose + 10% FBS | 412 | 427 | 251
RPMI 5 mM glucose + 10% dialyzed FBS | 420 | 410 | 247
